Assay results from ChEMBL document CHEMBL1134903, “Synthesis and SAR of azalide 3,6-ketal aromatic derivatives as potent Gram-positive and Gram-negative antibacterial agents” (Bioorg Med Chem Lett, 2002).
≈ marks a conversion by molar mass, not a printed value.

Experiments:
Assay type in all cases: functional
[1] = tested on: Escherichia coli; test: Minimum inhibitory concentration against Escherichia coli
[2] = tested on: Staphylococcus aureus; test: Effective dose required to inhibit Staphylococcus aureus intraperitoneal (IP) infection model
[3] = tested on: Staphylococcus aureus; test: Minimum inhibitory concentration against Staphylococcus aureus
[4] = tested on: Pasteurella multocida; test: Minimum inhibitory concentration against Pasteurella multocida

Q: With `CC[C@H]1OC(=O)[C@H](C)[C@H]2OC3(CCN(C(=O)c4c[nH]c5ccccc45)CC3)O[C@](C)(C[C@@H](C)CN[C@H](C)[C@@H](O)[C@]1(C)O)[C@H](O[C@@H]1O[C@H](C)C[C@H](N(C)C)[C@H]1O)[C@H]2C` as the molecule, how does the MIC [1] read?
A: 6.25 µg/mL (≈ 7.8 µM)

Q: What about the ED50 [2] of the same molecule?
A: 11 mg/kg

Q: What about the MIC [3] of the same molecule?
A: 0.39 µg/mL (≈ 0.487 µM)

Q: And the MIC [4]?
A: 0.1 µg/mL (≈ 0.125 µM)

Q: Which MIC [1] does the source give for `CC[C@H]1OC(=O)[C@H](C)[C@H]2OC3(CCN(C(=O)c4cc5ccccc5[nH]4)CC3)O[C@](C)(C[C@@H](C)CN[C@H](C)[C@@H](O)[C@]1(C)O)[C@H](O[C@@H]1O[C@H](C)C[C@H](N(C)C)[C@H]1O)[C@H]2C` here?
A: 3.13 µg/mL (≈ 3.91 µM)

Q: And the ED50 [2]?
A: > 20 mg/kg

Q: What about the MIC [3] of the same molecule?
A: 0.78 µg/mL (≈ 0.974 µM)

Q: What about the MIC [4] of the same molecule?
A: 0.1 µg/mL (≈ 0.125 µM)

Q: `CC[C@H]1OC(=O)[C@H](C)[C@H]2OC3(CCN(C(=O)c4cnc5ccccc5c4)CC3)O[C@](C)(C[C@@H](C)CN(C)[C@H](C)[C@@H](O)[C@]1(C)O)[C@H](O[C@@H]1O[C@H](C)C[C@H](N(C)C)[C@H]1O)[C@H]2C` was tested. Which MIC [1] did it give?
A: 6.25 µg/mL (≈ 7.56 µM)

Q: What about the ED50 [2] of the same molecule?
A: > 20 mg/kg

Q: What about the MIC [3] of the same molecule?
A: 0.39 µg/mL (≈ 0.472 µM)

Q: What about the MIC [4] of the same molecule?
A: 0.1 µg/mL (≈ 0.121 µM)

Q: Which MIC [1] does the source give for `CC[C@H]1OC(=O)[C@H](C)[C@H]2OC3(CCN(Cc4ccc(-c5ccccc5)cc4)CC3)O[C@](C)(C[C@@H](C)CN(C)[C@H](C)[C@@H](O)[C@]1(C)O)[C@H](O[C@@H]1O[C@H](C)C[C@H](N(C)C)[C@H]1O)[C@H]2C` here?
A: 1.56 µg/mL (≈ 1.86 µM)

Q: And the ED50 [2]?
A: > 20 mg/kg

Q: What about the MIC [3] of the same molecule?
A: 0.2 µg/mL (≈ 0.239 µM)

Q: What about the MIC [4] of the same molecule?
A: 0.1 µg/mL (≈ 0.119 µM)

Q: Which results are given for `CC[C@H]1OC(=O)[C@H](C)[C@H]2OC3(CCN(C(=O)c4cncc(Cl)c4Cl)CC3)O[C@](C)(C[C@@H](C)CN[C@H](C)[C@@H](O)[C@]1(C)O)[C@H](O[C@@H]1O[C@H](C)C[C@H](N(C)C)[C@H]1O)[C@H]2C`?
A: MIC [1]: 3.13 µg/mL (≈ 3.76 µM); ED50 [2]: > 20 mg/kg; MIC [3]: 3.13 µg/mL (≈ 3.76 µM); MIC [4]: 0.1 µg/mL (≈ 0.12 µM)

Q: `CC[C@H]1OC(=O)[C@H](C)[C@H]2OC3(CCN(C(=O)c4occc4C)CC3)O[C@](C)(C[C@@H](C)CN[C@H](C)[C@@H](O)[C@]1(C)O)[C@H](O[C@@H]1O[C@H](C)C[C@H](N(C)C)[C@H]1O)[C@H]2C` was tested. Which MIC [1] did it give?
A: 1.56 µg/mL (≈ 2.04 µM)

Q: What about the ED50 [2] of the same molecule?
A: > 20 mg/kg

Q: What about the MIC [3] of the same molecule?
A: 0.78 µg/mL (≈ 1.02 µM)

Q: And the MIC [4]?
A: 0.1 µg/mL (≈ 0.131 µM)

Q: How did the MIC [1] turn out when `CC[C@H]1OC(=O)[C@H](C)[C@H]2OC3(CCN(CCc4ccc(C#N)cc4)CC3)O[C@](C)(C[C@@H](C)CN(C)[C@H](C)[C@@H](O)[C@]1(C)O)[C@H](O[C@@H]1O[C@H](C)C[C@H](N(C)C)[C@H]1O)[C@H]2C` was run?
A: 0.39 µg/mL (≈ 0.487 µM)

Q: And the ED50 [2]?
A: 22 mg/kg

Q: And the MIC [3]?
A: 0.78 µg/mL (≈ 0.974 µM)

Q: What about the MIC [4] of the same molecule?
A: 0.03 µg/mL (≈ 0.0374 µM)

Q: With `CC[C@H]1OC(=O)[C@H](C)[C@H]2OC3(CCN(CCc4ccoc4)CC3)O[C@](C)(C[C@@H](C)CN(C)[C@H](C)[C@@H](O)[C@]1(C)O)[C@H](O[C@@H]1O[C@H](C)C[C@H](N(C)C)[C@H]1O)[C@H]2C` as the molecule, how does the MIC [1] read?
A: 0.2 µg/mL (≈ 0.261 µM)

Q: What about the MIC [4] of the same molecule?
A: 0.03 µg/mL (≈ 0.0392 µM)

Q: How did the MIC [1] turn out when `CC[C@H]1OC(=O)[C@H](C)[C@H]2OC3(CCN(CCc4cccc(OC)c4)CC3)O[C@](C)(C[C@@H](C)CN(C)[C@H](C)[C@@H](O)[C@]1(C)O)[C@H](O[C@@H]1O[C@H](C)C[C@H](N(C)C)[C@H]1O)[C@H]2C` was run?
A: 0.2 µg/mL (≈ 0.248 µM)

Q: And the ED50 [2]?
A: > 20 mg/kg

Q: What about the MIC [3] of the same molecule?
A: 0.6 µg/mL (≈ 0.744 µM)

Q: What about the MIC [4] of the same molecule?
A: 0.03 µg/mL (≈ 0.0372 µM)

Q: How did the MIC [1] turn out when `CC[C@H]1OC(=O)[C@H](C)[C@H]2OC3(CCN(CCc4ccnc5ccccc45)CC3)O[C@](C)(C[C@@H](C)CN(C)[C@H](C)[C@@H](O)[C@]1(C)O)[C@H](O[C@@H]1O[C@H](C)C[C@H](N(C)C)[C@H]1O)[C@H]2C` was run?
A: 1.56 µg/mL (≈ 1.89 µM)

Q: And the ED50 [2]?
A: > 20 mg/kg

Q: And the MIC [3]?
A: 0.39 µg/mL (≈ 0.472 µM)

Q: What about the MIC [4] of the same molecule?
A: 0.05 µg/mL (≈ 0.0605 µM)

Q: How did the MIC [1] turn out when `CC[C@H]1OC(=O)[C@H](C)[C@H]2OC3(CCN(C(=O)c4cccs4)CC3)O[C@](C)(C[C@@H](C)CN(C)[C@H](C)[C@@H](O)[C@]1(C)O)[C@H](O[C@@H]1O[C@H](C)C[C@H](N(C)C)[C@H]1O)[C@H]2C` was run?
A: 1.56 µg/mL (≈ 1.99 µM)

Q: And the MIC [2]?
A: > 20 µg/mL

Q: And the MIC [4]?
A: 0.05 µg/mL (≈ 0.0639 µM)

Q: Which results are given for `CC[C@H]1OC(=O)[C@H](C)[C@H]2OC3(CCN(C(=O)c4ccc(-c5ccccc5)cc4)CC3)O[C@](C)(C[C@@H](C)CN[C@H](C)[C@@H](O)[C@]1(C)O)[C@H](O[C@@H]1O[C@H](C)C[C@H](N(C)C)[C@H]1O)[C@H]2C`?
A: MIC [1]: 6.25 µg/mL (≈ 7.46 µM); MIC [3]: 0.78 µg/mL (≈ 0.931 µM); MIC [4]: 0.2 µg/mL (≈ 0.239 µM)

Q: What does the source list for `CC[C@H]1OC(=O)[C@H](C)[C@H]2OC3(CCN(CCc4ccc(Cl)c(Cl)c4)CC3)O[C@](C)(C[C@@H](C)CN[C@H](C)[C@@H](O)[C@]1(C)O)[C@H](O[C@@H]1O[C@H](C)C[C@H](N(C)C)[C@H]1O)[C@H]2C`?
A: MIC [1]: 3.13 µg/mL (≈ 3.77 µM); MIC [3]: 0.39 µg/mL (≈ 0.469 µM); MIC [4]: 0.05 µg/mL (≈ 0.0602 µM)

Q: Which MIC [1] does the source give for `CC[C@H]1OC(=O)[C@H](C)[C@H]2OC3(CCN(Cc4ccncc4)CC3)O[C@](C)(C[C@@H](C)CN[C@H](C)[C@@H](O)[C@]1(C)O)[C@H](O[C@@H]1O[C@H](C)C[C@H](N(C)C)[C@H]1O)[C@H]2C` here?
A: 0.78 µg/mL (≈ 1.04 µM)

Q: And the ED50 [2]?
A: 6.4 mg/kg

Q: What about the MIC [3] of the same molecule?
A: 1.56 µg/mL (≈ 2.08 µM)

Q: And the MIC [4]?
A: 0.03 µg/mL (≈ 0.0401 µM)

Q: For `CC[C@H]1OC(=O)[C@H](C)[C@H]2OC3(CCN(CCc4ccc(OC)cc4)CC3)O[C@](C)(C[C@@H](C)CN[C@H](C)[C@@H](O)[C@]1(C)O)[C@H](O[C@@H]1O[C@H](C)C[C@H](N(C)C)[C@H]1O)[C@H]2C`, which MIC [1] is on record?
A: 0.2 µg/mL (≈ 0.253 µM)

Q: And the MIC [3]?
A: 0.2 µg/mL (≈ 0.253 µM)

Q: And the MIC [4]?
A: 0.01 µg/mL (≈ 0.0126 µM)
